Target: T1, Pru p 1.0101 (Prunus persica, UniProt Q2I6V8)
T1 construct: gene ypr-10
Assay: biochemical

T1 sequence (Q2I6V8 1-160): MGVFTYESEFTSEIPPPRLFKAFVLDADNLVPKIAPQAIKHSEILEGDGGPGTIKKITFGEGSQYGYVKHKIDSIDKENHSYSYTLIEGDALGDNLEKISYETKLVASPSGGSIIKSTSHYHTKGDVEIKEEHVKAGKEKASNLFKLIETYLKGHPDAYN

Kd: 1900 ± 400 µM
Structure (SMILES): C/C(=C\CNc1ncnc2[nH]cnc12)CO [trans-zeatin]

Source: article PMC8323099 (Journal of Agricultural and Food Chemistry, 2021)
